According to patent US20230159527A1, “COMPOUNDS AS BCL-2 INHIBITORS” (Fochon Pharmaceuticals, Ltd., priority 2020, published 2023):

Tests used:
Type in all cases: cell-based
Toledo cells = assay: Cell proliferation assay, Toledo cells (MTS, 72 h); conditions: Homo sapiens, Toledo cells, MTS, read-out: Toledo IC50
Summary of the method: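 IC50 was derived from 490 nm absorbance after a 2 h MTS step. Before that, compounds at 1.5–10000 nM final (nine points) acted on Toledo cells for 72 h at 37 °C, 5% CO2. Cells were seeded at 30000/well in 10% FBS RPMI-1640 and rested 4 h before dosing.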

RS4;11-BCL-2 G101V cells = assay: Cell proliferation assay, engineered RS4;11 cells stably overexpressing BCL-2 G101V (MTS, 168 h); conditions: Homo sapiens, RS4-11, 168 h, read-out: RS4, 11 BCL2- G101V
Summary of the method: (§1)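 Proliferation read-out: MTS for exactly 2 h, then absorbance at 490 nm, with IC50 derived from the fit. Before this, engineered RS4;11 lines (BCL-2 G101V, F104L; 5000 cells/well) were exposed 168 h at 37 °C to serially diluted compound, final 1.4–10000 nM.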

RS4;11-BCL-2 F104L cells = assay: Cell proliferation assay, engineered RS4;11 cells stably overexpressing BCL-2 F104L (MTS, 168 h); conditions: Homo sapiens, read-out: RS4, 11 BCL2-F104L
Summary of the method: as §1

Row | IC50 (RS4;11-BCL-2 G101V cells) [nM] | IC50 (RS4;11-BCL-2 F104L cells) [nM] | Compound | IC50 (Toledo cells) [nM]
1 | 1 | 1 | CC(C)c1ccccc1[C@@H]1CCCN1C1CC2(CCN(c3ccc(C(=O)NS(=O)(=O)c4cc5c(c([N+](=O)[O-])c4)N[C@@H]([C@H]4CC[C@](C)(O)CC4)CO5)c(Oc4cc5cc[nH]c5nc4OC[C@@H]4COCCN4C)c3)CC2)C1 (single isomer, unassigned) [Example D-135, N-(((S)-3-((1r,4S)-4-hydroxy-4-methylcyclohexyl)-5-nitro-3,4-dihydro-2H-benzo[b][1,4]oxazin-7-yl)sulfonyl)-4-(2-((R or S)-2-(2-isopropylphenyl)pyrrolidin-1-yl)-7-azaspiro[3.5]nonan-7-yl)-2-((6-(((S)-4-methylmorpholin-3-yl)methoxy)-1H-pyrrolo[2,3-b]pyridin-5-yl)oxy)benzamide] | 1
2 | 1 | 25 | CC(C)c1ccccc1[C@@H]1CCCN1C1CC2(CCN(c3ccc(C(=O)NS(=O)(=O)c4cc5c(c([N+](=O)[O-])c4)N[C@@H]([C@H]4CC[C@](C)(O)CC4)CO5)c(Oc4cc5cc[nH]c5nc4F)c3)CC2)C1 (single isomer, unassigned) [Example D-64, 2-((6-fluoro-1H-pyrrolo[2,3-b]pyridin-5-yl)oxy)-N-(((S)-3-((1r,4S)-4-hydroxy-4-methylcyclohexyl)-5-nitro-3,4-dihydro-2H-benzo[b] [1,4]oxazin-7-yl)sulfonyl)-4-(2-((R or S)-2-(2-isopropylphenyl)pyrrolidin-1-yl)-7-azaspiro[3.5]nonan-7-yl)benzamide] | 1
3 | 57 | 19 | COCCOc1nc2[nH]cc(F)c2cc1Oc1cc(N2CCC3(CC2)CN([C@H]2CCC[C@H]2c2ccccc2C(C)C)C3)ccc1C(=O)NS(=O)(=O)c1cnc(NC[C@H]2CC[C@](C)(O)CC2)c([N+](=O)[O-])c1 (single isomer, unassigned) [Example A-154, 2-((3-fluoro-6-(2-methoxyethoxy)-1H-pyrrolo[2,3-b]pyridin-5-yl)oxy)-N-((6-(((1r,4r)-4-hydroxy-4-methyl-cyclohexyl)methyl)amino)-5-nitro-pyridin-3-yl)sulfonyl)-4-(2-((1S,2S or 1R,2R)-2-(2-isopropylphenyyl)cyclo-pentyl)-2,7-diazaspiro[3.5]nonan-7-yl) benzamide] | 1
4 | 6 | 1 | CC(C)c1ccccc1[C@@H]1CCC[C@@H]1N1CC2(CCN(c3ccc(C(=O)NS(=O)(=O)c4cnc(NC[C@H]5CC[C@](C)(O)CC5)c([N+](=O)[O-])c4)c(Oc4cc5c(F)c[nH]c5nc4F)c3)CC2)C1 (single isomer, unassigned) [Example A-150, 2-((3,6-difluoro-1H-pyrrolo[2,3-b]pyridin-5-yl)oxy)-N-((6-((((1r,4r)-4-hydroxy-4-methylcyclohexyl)methyl)amino)-5-nitropyridin-3-yl)sulfonyl)-4-(2-((1S,2S or 1R,2R)-2-(2-isopropylphenyl)cyclo-petyl)-2,7-diazaspiro[3.5]nonan-7-yl) benzamide] | 1
5 | 1 | 14 | CC(C)c1ccccc1[C@@H]1CCCN1C1CC2(CCN(c3ccc(C(=O)NS(=O)(=O)c4cc5c(c([N+](=O)[O-])c4)N[C@@H]([C@H]4CC[C@](C)(O)CC4)CO5)c(Oc4cnc5[nH]cc(F)c5c4)c3)CC2)C1 (single isomer, unassigned) [Example D-7, 2-((3-fluoro-1H-pyrrolo[2,3-b]pyridin-5-yl)oxy)-N-(((S)-3-((1r,4S)-4-hydroxy-4-methylcyclohexyl)-5-nitro-3,4-dihydro-2H-benzo[b] [1,4]oxazin-7-yl)sulfonyl)-4-(2-((R or S)-2-(2-isopropylphenyl)pyrrolidin-1-yl)-7-azaspiro[3.5]nonan-7-yl)benzamide] | 1
6 | 1 | 20 | CCOc1nc2[nH]ccc2cc1Oc1cc(N2CCC3(CC2)CC(N2CCC[C@H]2c2ccccc2C(C)C)C3)ccc1C(=O)NS(=O)(=O)c1cc2c(c([N+](=O)[O-])c1)N[C@@H]([C@H]1CC[C@](C)(O)CC1)CO2 (single isomer, unassigned) [Example D-65, 2-((6-ethoxy-1H-pyrrolo[2,3-b]pyridin-5-yl)oxy)-N-(((5)-3-((1r,4S)-4-hydroxy-4-methylcyclohexyl)-5-nitro-3,4-dihydro-2H-benzo[b] [1,4]oxazin-7-yl)sulfonyl)-4-(2-((R or S)-2-(2-isopropylphenyl)pyrrolidin-1-yl)-7-azaspiro[3.5]nonan-7-yl)benzamide] | 1
7 | 1 | 1 | CC(C)c1ccccc1[C@@H]1CCCN1C1CC2(CCN(c3ccc(C(=O)NS(=O)(=O)c4cc5c(c([N+](=O)[O-])c4)N[C@@H]([C@H]4CC[C@](C)(O)CC4)CO5)c(Oc4cc5cc[nH]c5nc4O[C@@H]4C[C@@H](CO)N(C)C4)c3)CC2)C1 (single isomer, unassigned) [Example D-250, N-(((S)-3-((1r,4S)-4-hydroxy-4-methylcyclohexyl)-5-nitro-3,4-dihydro-2H-benzo[b][1,4]oxazin-7-yl)sulfonyl)-2-((6-(((3R,5S)-5-(hydroxymethyl)-1-methylpyrrolidin-3-yl)oxy)-1H-pyrrolo[2,3-b]pyridin-5-yl)oxy)-4-(2-((R or S)-2-(2-isopropylphenyl)pyrrolidin-1-yl)-7-azaspiro[3.5]nonan-7-yl)benzamide] | 1
8 | 1 | 1 | CC(C)c1ccccc1[C@@H]1CCCN1C1CC2(CCN(c3ccc(C(=O)NS(=O)(=O)c4cc5c(c([N+](=O)[O-])c4)N[C@@H]([C@H]4CC[C@](C)(O)CC4)CO5)c(Oc4cc5cc[nH]c5nc4OC[C@H]4COCCN4C)c3)CC2)C1 (single isomer, unassigned) [Example D-134, N-(((S)-3-((1r,4S)-4-hydroxy-4-methylcyclohexyl)-5-nitro-3,4-dihydro-2H-benzo[b][1,4]oxazin-7-yl)sulfonyl)-4-(2-((R or S)-2-(2-isopropylphenyl)pyrrolidin-1-yl)-7-azaspiro[3.5]nonan-7-yl)-2-((6-(((7)-4-methylmorpholin-3-yl)methoxy)-1H-pyrrolo[2,3-b]pyridin-5-yl)oxy)benzamide] | 1
9 | 3 | 1 | CC(C)c1ccccc1[C@@H]1CCC[C@@H]1N1CC2(CCN(c3ccc(C(=O)NS(=O)(=O)c4cnc(NC[C@H]5CC[C@](C)(O)CC5)c([N+](=O)[O-])c4)c(Oc4cc5c(F)c[nH]c5nc4Cl)c3)CC2)C1 (single isomer, unassigned) [Example A-151, 2-((6-chloro-3-fluoro-1H-pyrrolo[2,3-b]pyridin-5-yl)oxy)-N-((6-((((1r,4r)-4-hydroxy-4-methylcyclohexyl)methyl)amino)-5-nitropyridin-3-yl)sulfonyl)-4-(2-((1S,2S or 1R,2R)-2-(2-isopropylphenyl)cyclo-pentyl)-2,7-diazaspiro[3.5]nonan-7-yl)_ benzamide] | 1
10 | 4 | 1 | CC(C)c1ccccc1[C@@H]1CCC[C@@H]1N1CC2(CCN(c3ccc(C(=O)NS(=O)(=O)c4cc5c(c([N+](=O)[O-])c4)N[C@@H]([C@H]4CC[C@](C)(O)CC4)CO5)c(Oc4cc5c(F)c[nH]c5nc4F)c3)CC2)C1 (single isomer, unassigned) [Example D-96, 2-((3,6-difluoro-1H-pyrrolo[2,3-b]pyridin-5-yl)oxy)-N-(((S)-3-((1r,4S)-4-hydroxy-4-methylcyclohexyl)-5-nitro-3,4-dihydro-2H-benzo[b][1,4]oxazin-7-yl)sulfonyl)-4-(2-((1S,2S or 1R,2R)-2-(2-isopropylphenyl)cyclopentyl)-2,7-diazaspiro[3.5]nonan-7-yl)benzamide] | 1
11 | 13 | 12 | COCCOc1nc2[nH]cc(F)c2cc1Oc1cc(N2CCC3(CC2)CC(N2CCC[C@H]2c2ccccc2C(C)C)C3)ccc1C(=O)NS(=O)(=O)c1cc2c(c([N+](=O)[O-])c1)N[C@@H]([C@H]1CC[C@](C)(O)CC1)CO2 (single isomer, unassigned) [Example D-71, 2-((3-fluoro-6-(2-methoxyethoxy)-1H-pyrrolo[2,3-b]pyridin-5-yl)oxy)-N-(((S)-3-((1r,4S)-4-hydroxy-4-methylcyclohexyl)-5-nitro-3,4-dihydro-2H-benzo[b][1,4]oxazin-7-yl)sulfonyl)-4-(2-((R or S)-2-(2-isopropylphenyl)pyrrolidin-1-yl)-7-azaspiro[3.5]nonan-7-yl)benzamide] | 1
12 | 1 | 1 | CC(C)c1ccccc1[C@@H]1CCCN1C1CC2(CCN(c3ccc(C(=O)NS(=O)(=O)c4cc5c(c([N+](=O)[O-])c4)N[C@@H]([C@H]4CC[C@](C)(O)CC4)CO5)c(Oc4cc5cc[nH]c5nc4OC4CCN(C)CC4)c3)CC2)C1 (single isomer, unassigned) [Example D-229, N-(((S)-3-((1r,4S)-4-hydroxy-4-methylcyclohexyl)-5-nitro-3,4-dihydro-2H-benzo[b][1,4]oxazin-7-yl)sulfonyl)-4-(2-((R or S)-2-(2-isopropylphenyl)pyrrolidin-1-yl)-7-azaspiro[3.5]nonan-7-yl)-2-((6-((1-methylpiperidin-4-yl)oxy)-1H-pyrrolo[2,3-b]pyridin-5-yl)oxy)benzamide] | 1
